Assay results: patent US12023320B2, “Therapeutic agent for fatty liver disease” (EA PHARMA CO., LTD., priority 2020, dated 2024)

System: high-fat and high-fructose-induced NASH model (FFD model)
Experiment: high-fat and high-fructose-induced NASH model (fast-food diet model: FFD model), 18 weeks gavage
Assay type: in vivo, C57BL/6J Jms Slc male mice
Details: for histopathological findings: Fat formation: large fat droplets, number of mice graded ± (Slight) / histopathological findings: Fat formation: large fat droplets, number of mice graded + (Moderate): 8 mice evaluated; for histopathological findings: Fat formation: large fat droplets, number of mice graded ± (Slight) / histopathological findings: Fibrosis, number of mice graded ± (Slight): Vehicle 3; for histopathological findings: Fat formation: large fat droplets, number of mice graded + (Moderate) / histopathological findings: Fibrosis, number of mice graded + (Moderate): Vehicle 5; for histopathological findings: Fibrosis, number of mice graded ± (Slight) / histopathological findings: Fibrosis, number of mice graded + (Moderate): individuals with liver nodules excluded; for number of CD68-positive hCLS in the liver (inhibitory effect on the increase vs Vehicle group): after 18 weeks of administration (FIG. 5); for liver TG (inhibitory effect on the increase vs Vehicle group): after 18 weeks of administration (FIG. 3)
Method: In the present Examples, using a high-fat and high-fructose-induced NASH model (fast-food diet model: FFD model), the effect of a test drug was evaluated. For the FFD model, refer to BMC Gastroenterol. 2020; 20: 210 and Am J Physiol Gastrointest Liver Physiol. 2013 Oct. 1; 305(7): G483-95. The test drug was prepared by adding hydrochloride of the compound represented by the formula (1) (hereinafter referred to as “compound 1”) to 0.5% MC and sonicating the mixture. 6-week-old C57BL/6J Jms Slc male mice were fed with standard diet (D09100304, Research Diets, Inc.) or FFD diet for pathogenesis (D09100310N, Research Diets, Inc.) for 20 weeks. Then, the mice were grouped as shown in Table 1 based on three indices, i.e., plasma alanine aminotransferase (ALT) levels, body weight, and fasting blood glucose levels. According to the dosage and usage shown in Table 1, the administration substance was gavaged to each group for 18 weeks. [table] ALT was measured by collecting blood from the tail vein after 12 weeks of administration. An autopsy was performed after 18 weeks of administration, and plasma aspartate aminotransferase (AST), plasma total cholesterol (Tcho), and liver triglyceride (TG) were measured. In addition, the Sirius red-positive area and the number of hepatic crown-like structures (hCLS) were measured by liver pathological analysis. Statistical analysis was performed using GraphPad Prism 6 (GraphPad Software, Inc.). For the Normal group and the Vehicle group, t-test or Mann-Whitney's test was performed. For the Vehicle group and the compound 1 group, Dunnett' multiple comparison test or Dunn's multiple comparison test was performed. Any of the test methods was appropriately selected according to the distribution of each parameter. The significance level of all the tests was set to p=0.05. A liver sample was homogenized in a phosphate buffer and extracted with methanol and chloroform overnight. Then, chloroform and distilled water were further added thereto. The mixture was separated by centrifugation, the chloroform layer was collected, and the solvent was dried. The precipitate was dissolved in isopropanol/TritonX-100, and this was used as a measurement sample, the measurement was carried out using Triglyceride E-Test Wako (FUJIFILM Wako Pure Chemical Corporation). The excised liver was fixed in a 10% neutral buffered formalin solution, and embedded in paraffin and Sirius red-stained specimens were prepared according to standard methods. The Sirius red-stained specimen was used to calculate the positive area. The positive area of the Normal group was averaged and used as the background. A CD68 immunostaining specimen (rabbit anti-CD68 polyclonal antibody [ab125212], Abcam) was prepared, and the number of hCLS was counted.

[1] = compound 1 (60) group, 60 mg/kg/day BID

CC(C)(Cc1ccc(C(=O)Oc2ccc(C(=N)N)cc2F)s1)C(=O)O [compound 1]
histopathological findings: Fat formation: large fat droplets, number of mice graded ± (Slight) (10 mg/kg QD): 4
histopathological findings: Fat formation: large fat droplets, number of mice graded + (Moderate) (10 mg/kg QD): 4
histopathological findings: Fibrosis, number of mice graded ± (Slight) (10 mg/kg QD): 6
histopathological findings: Fibrosis, number of mice graded + (Moderate) (10 mg/kg QD): 2
histopathological findings: Fat formation: large fat droplets, number of mice graded ± (Slight) (30 mg/kg QD): 2
histopathological findings: Fat formation: large fat droplets, number of mice graded + (Moderate) (30 mg/kg QD): 6
histopathological findings: Fibrosis, number of mice graded ± (Slight) (30 mg/kg QD): 6
histopathological findings: Fibrosis, number of mice graded + (Moderate) (30 mg/kg QD): 1
histopathological findings: Fat formation: large fat droplets, number of mice graded ± (Slight) (60 mg/kg/day BID): 7
histopathological findings: Fat formation: large fat droplets, number of mice graded + (Moderate) (60 mg/kg/day BID): 1
histopathological findings: Fibrosis, number of mice graded ± (Slight) (60 mg/kg/day BID): 6
histopathological findings: Fibrosis, number of mice graded + (Moderate) (60 mg/kg/day BID): 2
number of CD68-positive hCLS in the liver (inhibitory effect on the increase vs Vehicle group) (compound 1 (10) group, 10 mg/kg QD): statistically significant inhibitory effect
liver TG (inhibitory effect on the increase vs Vehicle group) (compound 1 (30) group, 30 mg/kg QD): statistically significant inhibitory effect
plasma ALT (inhibitory effect on the increase vs Vehicle group) (compound 1 (60) group, 60 mg/kg/day BID, after 12 weeks and 18 weeks of administration (FIG. 1A, 1B)): statistically significant inhibitory effect
plasma AST (inhibitory effect on the increase vs Vehicle group) (compound 1 (60) group, 60 mg/kg/day BID, after 18 weeks of administration (FIG. 1C)): statistically significant inhibitory effect
plasma Tcho (inhibitory effect on the increase vs Vehicle group) (compound 1 (60) group, 60 mg/kg/day BID, after 18 weeks of administration (FIG. 2)): statistically significant inhibitory effect
liver TG (inhibitory effect on the increase vs Vehicle group) [1]: statistically significant inhibitory effect
Sirius red-positive area in the liver (inhibitory effect on the increase vs Vehicle group) (compound 1 (60) group, 60 mg/kg/day BID, after 18 weeks of administration (FIG. 4)): statistically significant inhibitory effect
number of CD68-positive hCLS in the liver (inhibitory effect on the increase vs Vehicle group) [1]: statistically significant inhibitory effect
